Measured values as given in patent US9364480B2, “Pharmaceutical composition for preventing or treating cancer, containing enoblock as active ingredient” (GWANGJU INSTITUTE OF SCIENCE AND TECHNOLOGY, priority 2012, dated 2016).
“Also recorded” adds a separate entry of the source.

What was measured:
macrophages = assay: Macrophage cytotoxicity (MTT assay); assay type: cell-based
Description: (§1) FIG. 14. […] Treatment with 3 mM H2O2 for 48 h was used as a positive control.

zebrafish larvae [1] = assay: Measurement of glucose uptake in zebrafish (2-NBDG); assay type: in vivo; parameters: 2-NBDG signal in lysed larvae (fluorescent plate reader): dose or concentration left out as unconfirmed
Description: FIG. 12. […] (a) Schematic of our approach to measure the effect of ENOblock treatment on […] in zebrafish.
At 72 hpf, larvae were placed into a 96-well plate (6 eggs/well in 200 μL E3 water supplemented with 0.2 mM 2-phenylthiourea; Sigma). Drug of interest was added for […]. The solution was then replaced with E3 water supplemented with 600 μM 2-NBDG and incubated for 3 h. The larva were washed with E3 water and anesthetized with 0.02% tricaine-supplemented E3 water. One larva was then placed on a chamber slide, containing 3% methylcellulose in E3 water, for fluorescent microscopy (Leica DM2500 microscope equipped with a DFC425 C digital camera). Images were captured at 50× magnification. The remaining 5 larvae where lysed with 120 μL of CelLytic M solution (Sigma-Aldrich) and sonication (4° C., 10″/5″ pulse, 10 min). Lysed larvae were centrifuged at 10000 rpm for 10 min. 100 μL of the supernatant was transferred to a 96-well plate and fluorescence was measured with a fluorescent microplate reader (SpectraMAX Gemini XS, Molecular Devices; λex=466 nm […]).

HEK kidney cells = assay: Glucose uptake with fluorescent glucose probe 2-NBDG, kidney cells; assay type: cell-based; details: 10 μM, 24 h
[2] = target: T1, enolase in HCT116 cancer cell lysate (Homo sapiens, UniProt P06733); assay: Affinity chromatography / Western blot of affinity matrix eluate, cell lysate; assay type: binding
T1 construct: endogenous in cells; host or cells: HCT116 colon carcinoma cells (lysate)
Description: FIG. 4. […] (a) Affinity chromatography study for ENOblock in HCT116 cancer cells. […] (b) Sequence identification for the enolase monomer subunit. […] Mascot scores above 100 were deemed to be significant. […] Twenty micrograms of cell lysate from YD-10B oral cancer cells or Huh7 hepatocytes were used as positive controls. […] As a positive control, ENOblock affinity matrix was incubated with 200 μg of HCT 116 cell lysate; 50 μg cell lysate from HCT116 cancer cells was used as a positive control for the enolase antibody.
Affinity chromatography was used to identify the cellular target for AP-III-a4. Target identification strategies for the triazine library used in this study are relatively straightforward, because the molecules contain a built-in linker moiety. This allows conjugation to an affinity matrix with reduced risk of compromising biological activity.

monocytes = assay: Monocyte differentiation into macrophages (attached cell count, PMA); assay type: cell-based; details: PMA treated; 10 μM
Description: as §1

[3] = system: 5′ AMP-activated protein kinase (AMPK) expression in hepatocytes; assay: AMPK expression in hepatocytes; assay type: cell-based; details: 10 μM, 24 h
Text: (§2) FIG. 10. […] Error=SD; *=P<0.05 compared to the no drug (DMSO-treated) group. […] Error=SD; *=P<0.05 for reduced PEPCK expression compared to the no drug (DMSO-treated) group.

HCT116 cancer cells [4] = assay: Cancer cell migration (transwell inserts, crystal violet); assay type: cell-based; details: HCT116, normoxia
Description: (§3) FIG. 7. […] (b) Microscopic images of crystal violet stained HCT116 cells invaded onto the transwell inserts (scale bar=100 μm). […] (d) Microscopic images of crystal violet stained HCT116 cells migrated onto the transwell inserts (scale bar=100 μm). […] Cells were treated with 10 nM taxol and 10 nM vincristine, with or without 10 μM ENOblock. Error=SD; *=P<0.05 between the groups indicated on the graph. […] For the AKT Western blot, cells were treated with ENOblock for 24 h; for the Bcl-Xl Western blot, cells were treated with ENOblock for 48 h.

[5] = system: Bcl-Xl expression in HCT116 cancer cells; assay: Bcl-Xl Western blot; assay type: cell-based; details: 48 h treatment
Description: as §3

HCT116 cancer cells [6] = assay: Sensitivity to antitubulin chemotherapeutics taxol and vincristine; assay type: cell-based; details: 10 nM taxol or 10 nM vincristine with or without 10 μM ENOblock
Description: as §3

[7] = system: PEPCK expression in HEK cells; assay: PEPCK expression in kidney cells; assay type: cell-based; details: 10 μM, 24 h
Text: as §2

zebrafish larvae [8] = assay: Toxicological analysis using the zebrafish larvae system; assay type: in vivo, zebrafish (Danio rerio); details: for microscopic assessment of larvae morphology: 72 days post fertilization (dfp) zebrafish larvae
Description: FIG. 9. Toxicological study of ENOblock and in vivo analysis of anticancer activity. (A) Toxicological analysis of ENOblock treatment using the zebrafish larvae system. […] (B) Microscopic assessment of […] post fertilization (dfp) zebrafish larvae exposed to increasing doses of ENOblock. […] Error=SD; *=P<0.05 compared to the DMSO treated group. P value: 20 μM ENOblock=0.0121; 40 μM ENOblock=0.0019. […] DMSO treatment served as a control. Three representative embryos are shown from each experimental group, and distributed cancer cell foci are designated with blue arrows. […] Error=SD; *=P<0.05 compared to the DMSO-treated group.
The zebrafish (Danio rerio) cancer cell xenograft model is gaining increasing research prominence as a validated, convenient tool for testing candidate cancer drugs in vivo.^10,11 In addition, zebrafish is a relevant vertebrate platform for predicting toxicological effects in mammals.^12 We observed that 10 μM ENOblock treatment of developing zebrafish larvae was nontoxic (FIG. 9a-9c).

[9] = system: PEPCK expression in adult zebrafish liver; assay: PEPCK expression in adult zebrafish liver; details: 10 μM, 3 h
[10] = system: phosphoenolpyruvate carboxykinase (PEPCK) expression in Huh7 hepatocytes; assay: PEPCK expression in hepatocytes; assay type: cell-based; details: 10 μM, 24 h
Text: as §2

HCT116 cancer cells [11] = assay: Cancer cell invasion (transwell inserts, crystal violet); assay type: cell-based; details: HCT116, normoxia
Description: as §3

T1 sequence (P06733 2-434): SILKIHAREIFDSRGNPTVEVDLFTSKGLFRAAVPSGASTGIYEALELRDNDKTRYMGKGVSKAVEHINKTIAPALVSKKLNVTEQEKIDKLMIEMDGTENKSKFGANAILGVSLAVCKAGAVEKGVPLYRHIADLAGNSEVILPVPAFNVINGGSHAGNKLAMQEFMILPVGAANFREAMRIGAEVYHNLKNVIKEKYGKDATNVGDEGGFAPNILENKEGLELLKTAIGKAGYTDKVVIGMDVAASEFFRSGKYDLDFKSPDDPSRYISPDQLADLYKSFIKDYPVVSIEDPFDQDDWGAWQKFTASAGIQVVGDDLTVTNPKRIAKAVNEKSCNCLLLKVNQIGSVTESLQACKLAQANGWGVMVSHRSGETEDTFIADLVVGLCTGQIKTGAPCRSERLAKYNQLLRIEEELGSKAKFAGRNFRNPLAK

Structure (SMILES): NCCOCCOCCNC(=O)Cc1ccc(Nc2nc(NCc3ccc(F)cc3)nc(NCC3CCCCC3)n2)cc1 [ENOblock]
- cytotoxicity to macrophages (MTT absorbance 570 nm) (macrophages): not due to cytotoxicity
- glucose uptake in larvae (2-NBDG fluorescence microscopy) (zebrafish larvae [1]; 10 μM, 4 h): increased glucose uptake in the zebrafish larvae
- 2-NBDG fluorescence signal intensity in the eye (zebrafish larvae [1]; 72 hpf larvae, 10 μM, 4 h, vs 2-NBDG alone): induced significantly greater fluorescent tagged glucose uptake in the zebrafish eye
- 2-NBDG signal in lysed larvae (fluorescent plate reader) (zebrafish larvae [1]; 72 hpf zebrafish): induced glucose uptake
- glucose uptake (2-NBDG) (HEK kidney cells): induced glucose uptake
- competition by free compound for enolase binding to ENOblock affinity matrix [2]: completely inhibited enolase binding to the ENOblock affinity matrix
- binding of lysate proteins/enolase to compound affinity matrix ([2]; silver stain, mass spectrometry): enolase in HCT116 cancer cell lysate binds to the ENOblock affinity matrix
- monocyte differentiation into macrophages (number of attached cells) (monocytes): inhibited differentiation into macrophages
- AMPK expression [3]: did not affect expression of the enzymes
- cancer cell migration (HCT116 cancer cells [4]): inhibited cell migration dose-dependently
- inhibition of cell migration compared with LY294002 (HCT116 cancer cells [4]): more effective than LY294002 at inhibiting cell migration
- Bcl-Xl expression [5]: decreased the expression of AKT and Bcl-Xl
- sensitivity to taxol and vincristine (cytotoxicity) (HCT116 cancer cells [6]): increased sensitivity to the antitubulin chemotherapeutics taxol and vincristine
- PEPCK expression [7]: inhibited expression of PEPCK
- overall zebrafish larvae viability (zebrafish larvae [8]; 10 μM): did not affect viability
- overall zebrafish larvae viability (zebrafish larvae [8]; 20 μM): reduced overall zebrafish larvae viability
- overall zebrafish larvae viability (zebrafish larvae [8]; 40 μM): reduced overall zebrafish larvae viability
- microscopic assessment of larvae morphology (zebrafish larvae [8]; 20 μM): produced an abnormally large swim bladder
- microscopic assessment of larvae morphology (zebrafish larvae [8]; 40 μM): produced multiple abnormalities in the larvae
- toxicity / tolerability (developmental parameters) (zebrafish larvae [8]; zebrafish larvae, 10 μM): could be tolerated by the larvae; also recorded: nontoxic
- ability to swim (zebrafish larvae [8]; zebrafish larvae, 20 μM): inhibited the ability to swim
- hepatic PEPCK expression in vivo [9]: inhibited PEPCK expression in adult zebrafish liver
- PEPCK expression [10]: inhibited expression of PEPCK
- cancer cell invasion (HCT116 cancer cells [11]; 0.625-2.5 μM): inhibited invasion dose-dependently
- treatment concentration at which cancer cell invasion is significantly inhibited (HCT116 cancer cells [11]; P value=0.0481): 0.625 µM
